{"source": "PubChem BioAssay AID1963427", "about": "(Molecular Pharmacology Branch, DTP, NCI, 2024);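 note: compound exposure lasted seven days after spheroids formed for three days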;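 for viability, T/C: 100% = DMSO vehicle control wells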", "tested_on": "317291-083-R-J1-PDC complex spheroid growth", "assay": "Anticancer human tumor 317291-083-R-J1-PDC patient-derived soft tissue sarcoma cell line growth inhibition [Asc]", "conditions": "for IC50: curve of first compound; for viability, T/C: stronger effect = lower value", "summary_of_the_method": "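Concentration series start at each agent's clinical Cmax, or at 10 microM when none is established, and drop in half-log steps; agents are applied alone or together to complex spheroids built with HUVEC and hMSC.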", "key": {"[1]": {"conditions": "second compound 0.00949 µM, first compound 0.0316 µM"}, "[2]": {"conditions": "second compound 0.00949 µM, first compound 0.1 µM"}, "[3]": {"conditions": "second compound 0.00949 µM, first compound 0.316 µM"}, "[4]": {"conditions": "second compound 0.00949 µM, first compound 1 µM"}, "[5]": {"conditions": "second compound 0.00949 µM, first compound 3.16 µM"}, "[6]": {"conditions": "second compound 0.00949 µM, first compound 10 µM"}, "[7]": {"conditions": "second compound 0.03 µM, first compound 0.0316 µM"}, "[8]": {"conditions": "second compound 0.03 µM, first compound 0.1 µM"}, "[9]": {"conditions": "second compound 0.03 µM, first compound 0.316 µM"}, "[10]": {"conditions": "second compound 0.03 µM, first compound 1 µM"}, "[11]": {"conditions": "second compound 0.03 µM, first compound 3.16 µM"}, "[12]": {"conditions": "second compound 0.03 µM, first compound 10 µM"}, "[13]": {"conditions": "second compound 0.0949 µM, first compound 0.0316 µM"}, "[14]": {"conditions": "second compound 0.0949 µM, first compound 0.1 µM"}, "[15]": {"conditions": "second compound 0.0949 µM, first compound 0.316 µM"}, "[16]": {"conditions": "second compound 0.0949 µM, first compound 1 µM"}, "[17]": {"conditions": "second compound 0.0949 µM, first compound 3.16 µM"}, "[18]": {"conditions": "second compound 0.0949 µM, first compound 10 µM"}, "[19]": {"conditions": "second compound 0.3 µM, first compound 0.0316 µM"}, "[20]": {"conditions": "second compound 0.3 µM, first compound 0.1 µM"}, "[21]": {"conditions": "second compound 0.3 µM, first compound 0.316 µM"}, "[22]": {"conditions": "second compound 0.3 µM, first compound 1 µM"}, "[23]": {"conditions": "second compound 0.3 µM, first compound 3.16 µM"}, "[24]": {"conditions": "second compound 0.3 µM, first compound 10 µM"}, "[25]": {"conditions": "second compound 0.949 µM, first compound 0.0316 µM"}, "[26]": {"conditions": "second compound 0.949 µM, first compound 0.1 µM"}, "[27]": {"conditions": "second compound 0.949 µM, first compound 0.316 µM"}, "[28]": {"conditions": "second compound 0.949 µM, first compound 1 µM"}, "[29]": {"conditions": "second compound 0.949 µM, first compound 3.16 µM"}, "[30]": {"conditions": "second compound 0.949 µM, first compound 10 µM"}, "[31]": {"conditions": "second compound 3 µM, first compound 0.0316 µM"}, "[32]": {"conditions": "second compound 3 µM, first compound 0.1 µM"}, "[33]": {"conditions": "second compound 3 µM, first compound 0.316 µM"}, "[34]": {"conditions": "second compound 3 µM, first compound 1 µM"}, "[35]": {"conditions": "second compound 3 µM, first compound 3.16 µM"}, "[36]": {"conditions": "second compound 3 µM, first compound 10 µM"}}, "data": [{"smiles": "C=C(F)C(=O)N1CCN(c2nc(OCC3CCCN3C)nc3c2CCN(c2cccc4cccc(Cl)c24)C3)CC1CC#N", "note": "(centres undefined) + CCN1C(C(=O)NC23CCC(C(=O)O)(CC2)CC3)C(c2cccc(Cl)c2F)C2(C(=O)Nc3cc(Cl)ccc32)C12CCCCC2", "values": [{"measurement": "IC50", "setting": "second compound 0.00949 µM", "result": 2.51, "unit": "µM"}, {"measurement": "IC50", "setting": "second compound 0.03 µM", "result": 2.83, "unit": "µM"}, {"measurement": "IC50", "setting": "second compound 0.0949 µM", "result": 3.94, "unit": "µM"}, {"measurement": "IC50", "setting": "second compound 0.3 µM", "result": 1.98, "unit": "µM"}, {"measurement": "IC50", "setting": "second compound 0.949 µM", "result": 2.43, "unit": "µM"}, {"measurement": "IC50", "setting": "second compound 3 µM", "result": 2.11, "unit": "µM"}, {"measurement": "viability, T/C", "setting": "[1]", "result": 105, "unit": "%"}, {"measurement": "viability, T/C", "setting": "[2]", "result": 101, "unit": "%"}, {"measurement": "viability, T/C", "setting": "[3]", "result": 90.2, "unit": "%"}, {"measurement": "viability, T/C", "setting": "[4]", "result": 93.2, "unit": "%"}, {"measurement": "viability, T/C", "setting": "[5]", "result": 39.3, "unit": "%"}, {"measurement": "viability, T/C", "setting": "[6]", "result": 0.31, "unit": "%"}, {"measurement": "viability, T/C", "setting": "[7]", "result": 92.7, "unit": "%"}, {"measurement": "viability, T/C", "setting": "[8]", "result": 91.8, "unit": "%"}, {"measurement": "viability, T/C", "setting": "[9]", "result": 99.3, "unit": "%"}, {"measurement": "viability, T/C", "setting": "[10]", "result": 95.2, "unit": "%"}, {"measurement": "viability, T/C", "setting": "[11]", "result": 45.1, "unit": "%"}, {"measurement": "viability, T/C", "setting": "[12]", "result": 0.14, "unit": "%"}, {"measurement": "viability, T/C", "setting": "[13]", "result": 106, "unit": "%"}, {"measurement": "viability, T/C", "setting": "[14]", "result": 89, "unit": "%"}, {"measurement": "viability, T/C", "setting": "[15]", "result": 122, "unit": "%"}, {"measurement": "viability, T/C", "setting": "[16]", "result": 98.7, "unit": "%"}, {"measurement": "viability, T/C", "setting": "[17]", "result": 61.9, "unit": "%"}, {"measurement": "viability, T/C", "setting": "[18]", "result": 0.14, "unit": "%"}, {"measurement": "viability, T/C", "setting": "[19]", "result": 106, "unit": "%"}, {"measurement": "viability, T/C", "setting": "[20]", "result": 92.4, "unit": "%"}, {"measurement": "viability, T/C", "setting": "[21]", "result": 92.7, "unit": "%"}, {"measurement": "viability, T/C", "setting": "[22]", "result": 86.8, "unit": "%"}, {"measurement": "viability, T/C", "setting": "[23]", "result": 24.8, "unit": "%"}, {"measurement": "viability, T/C", "setting": "[24]", "result": 0.21, "unit": "%"}, {"measurement": "viability, T/C", "setting": "[25]", "result": 104, "unit": "%"}, {"measurement": "viability, T/C", "setting": "[26]", "result": 93, "unit": "%"}, {"measurement": "viability, T/C", "setting": "[27]", "result": 91.9, "unit": "%"}, {"measurement": "viability, T/C", "setting": "[28]", "result": 98, "unit": "%"}, {"measurement": "viability, T/C", "setting": "[29]", "result": 36.1, "unit": "%"}, {"measurement": "viability, T/C", "setting": "[30]", "result": 0.19, "unit": "%"}, {"measurement": "viability, T/C", "setting": "[31]", "result": 78.2, "unit": "%"}, {"measurement": "viability, T/C", "setting": "[32]", "result": 91.9, "unit": "%"}, {"measurement": "viability, T/C", "setting": "[33]", "result": 85.5, "unit": "%"}, {"measurement": "viability, T/C", "setting": "[34]", "result": 64.5, "unit": "%"}, {"measurement": "viability, T/C", "setting": "[35]", "result": 41.4, "unit": "%"}, {"measurement": "viability, T/C", "setting": "[36]", "result": 1.13, "unit": "%"}]}, {"smiles": "C=CC(=O)N1CCN(c2nc(=O)n(-c3c(C)ccnc3C(C)C)c3nc(-c4c(O)cccc4F)c(F)cc23)C(C)C1", "note": "(centres undefined) + CCN1C(C(=O)NC23CCC(C(=O)O)(CC2)CC3)C(c2cccc(Cl)c2F)C2(C(=O)Nc3cc(Cl)ccc32)C12CCCCC2", "values": [{"measurement": "IC50", "setting": "second compound 0.00949 µM", "result": "> 10", "unit": "µM"}, {"measurement": "IC50", "setting": "second compound 0.03 µM", "result": "> 10", "unit": "µM"}, {"measurement": "IC50", "setting": "second compound 0.0949 µM", "result": "> 10", "unit": "µM"}, {"measurement": "IC50", "setting": "second compound 0.3 µM", "result": "> 10", "unit": "µM"}, {"measurement": "IC50", "setting": "second compound 0.949 µM", "result": "> 10", "unit": "µM"}, {"measurement": "IC50", "setting": "second compound 3 µM", "result": 8.77, "unit": "µM"}, {"measurement": "viability, T/C", "setting": "[1]", "result": 94.8, "unit": "%"}, {"measurement": "viability, T/C", "setting": "[2]", "result": 79.8, "unit": "%"}, {"measurement": "viability, T/C", "setting": "[3]", "result": 85.8, "unit": "%"}, {"measurement": "viability, T/C", "setting": "[4]", "result": 92.5, "unit": "%"}, {"measurement": "viability, T/C", "setting": "[5]", "result": 77.6, "unit": "%"}, {"measurement": "viability, T/C", "setting": "[6]", "result": 71.8, "unit": "%"}, {"measurement": "viability, T/C", "setting": "[7]", "result": 90.1, "unit": "%"}, {"measurement": "viability, T/C", "setting": "[8]", "result": 80.2, "unit": "%"}, {"measurement": "viability, T/C", "setting": "[9]", "result": 93.2, "unit": "%"}, {"measurement": "viability, T/C", "setting": "[10]", "result": 89.3, "unit": "%"}, {"measurement": "viability, T/C", "setting": "[11]", "result": 84.8, "unit": "%"}, {"measurement": "viability, T/C", "setting": "[12]", "result": 71.2, "unit": "%"}, {"measurement": "viability, T/C", "setting": "[13]", "result": 101, "unit": "%"}, {"measurement": "viability, T/C", "setting": "[14]", "result": 93.3, "unit": "%"}, {"measurement": "viability, T/C", "setting": "[15]", "result": 98.6, "unit": "%"}, {"measurement": "viability, T/C", "setting": "[16]", "result": 94.7, "unit": "%"}, {"measurement": "viability, T/C", "setting": "[17]", "result": 84, "unit": "%"}, {"measurement": "viability, T/C", "setting": "[18]", "result": 71.4, "unit": "%"}, {"measurement": "viability, T/C", "setting": "[19]", "result": 99.7, "unit": "%"}, {"measurement": "viability, T/C", "setting": "[20]", "result": 81.2, "unit": "%"}, {"measurement": "viability, T/C", "setting": "[21]", "result": 94.1, "unit": "%"}, {"measurement": "viability, T/C", "setting": "[22]", "result": 93.3, "unit": "%"}, {"measurement": "viability, T/C", "setting": "[23]", "result": 111, "unit": "%"}, {"measurement": "viability, T/C", "setting": "[24]", "result": 69.2, "unit": "%"}, {"measurement": "viability, T/C", "setting": "[25]", "result": 85.2, "unit": "%"}, {"measurement": "viability, T/C", "setting": "[26]", "result": 84.7, "unit": "%"}, {"measurement": "viability, T/C", "setting": "[27]", "result": 89.2, "unit": "%"}, {"measurement": "viability, T/C", "setting": "[28]", "result": 77.7, "unit": "%"}, {"measurement": "viability, T/C", "setting": "[29]", "result": 83.3, "unit": "%"}, {"measurement": "viability, T/C", "setting": "[30]", "result": 67, "unit": "%"}, {"measurement": "viability, T/C", "setting": "[31]", "result": 68.6, "unit": "%"}, {"measurement": "viability, T/C", "setting": "[32]", "result": 72.6, "unit": "%"}, {"measurement": "viability, T/C", "setting": "[33]", "result": 72.4, "unit": "%"}, {"measurement": "viability, T/C", "setting": "[34]", "result": 98.5, "unit": "%"}, {"measurement": "viability, T/C", "setting": "[35]", "result": 82.3, "unit": "%"}, {"measurement": "viability, T/C", "setting": "[36]", "result": 46.3, "unit": "%"}]}]}
